In paper PMC3514216, “SRC Homology 2 Domain Binding Sites in Insulin, IGF-1 and FGF receptor mediated signaling networks reveal an extensive potential interactome” (Cell Communication and Signaling : CCS, 2012):

What was measured:
Lck SH2 domain [1] = biological target: Lck SH2 domain; design: method as in PMID 11278862; details: read-out: Affinity (KD); cited from earlier work
Lck SH2 domain [2] = test: SPOT peptide array; format: binding; details: GST-SH2 0.25 μM; for Array positive: membrane-bound peptide, 1 mM DTT, LiCor read-out
Src SH2 domain [3] = biological target: T1, Src SH2 domain (Homo sapiens, UniProt P12931); design: method as in 2 sources, ref [19] = [19]; PMID 7680959; doi:10.1016/0092-8674(93)90404-e; Songyang Z Shoelson SE Chaudhuri M Gish G Pawson T Haser WG King F Roberts T Ratnofsky S Lechleider RJ SH2 domains recognize specific phosphopeptide sequences Cell 1993 72 767 778 7680959 10.1016/0092 ||| ref [119, 121] = [119]; PMID 9032297; doi:10.1128/mcb.17.3.1702; Schlaepfer DD Broome MA Hunter T Fibronectin-stimulated signaling from a focal adhesion kinase-c-Src complex: involvement of the Grb2, p130cas, and Nck adaptor proteins Mol Cell Biol 1997 17 1702 1713 || [121]; PMID 16245368; doi:10.1002/jmr.755; Nasertorabi F Tars K Becherer K Kodandapani R Liljas L Vuori K Ely KR Molecular basis for regulation of Src by the docking protein p130Cas J Mol Recognit 2006 19 30 38 16245368 10.1002/jmr.755; details: read-out: Affinity (KD); cited from earlier work
panel of 50 SH2 domains = test: SPOT peptide array probed with each of 50 GST-SH2 domains; format: binding; details: SH2 domains with intensity >3X array mean; GST-SH2 0.25 μM, 1 mM DTT
Summary of the method: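 Each GST-fused SH2 domain was overlaid on 192 membrane-synthesized pTyr peptides (11-mers, 4 N-terminal and 6 C-terminal flanking residues) and read with anti-GST and near-infrared secondary antibodies. Binding called relative to membrane mean intensity (>3× positive, <1× negative); GST-only probes defined nonspecific peptides.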

Src SH2 domain [4] = biological target: T1, Src SH2 domain; test: SPOT peptide array; format: binding; details: GST-SH2 0.25 μM; for Array positive: membrane-bound peptide, 1 mM DTT, LiCor read-out
Summary of the method: (§1)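 Readout is near-infrared antibody signal: anti-GST primary, labelled secondary, after GST–SH2 fusion protein was applied to cellulose-bound 11-mer phosphopeptides. Spots exceeding threefold the mean of all peptides counted as positive, below the mean as negative, between as indeterminate.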

Hck SH2 domain = test: SPOT peptide array; format: binding; details: GST-SH2 0.25 μM, membrane-bound peptide, 1 mM DTT, LiCor read-out
Summary of the method: as §1

Crk SH2 domain = Crk SH2 domain (Homo sapiens, UniProt P46108); test: SPOT peptide array; format: binding; details: GST-SH2 0.25 μM, membrane-bound peptide, 1 mM DTT, LiCor read-out
Summary of the method: as §1

Nck1 SH2 domain [5] = biological target: T2, Nck1 SH2 domain (Homo sapiens, UniProt P16333); test: SPOT peptide array; format: binding; details: GST-SH2 0.25 μM, membrane-bound peptide, 1 mM DTT, LiCor read-out
Summary of the method: as §1

Nck1 SH2 domain [6] = biological target: T2, Nck1 SH2 domain; design: method as in PMID 16636066; details: peptide similar to the TIR10 peptide (EHIpYDEVAAD); read-out: Affinity (KD); cited from earlier work
Rasa1_C SH2 domain = biological target: T3, Rasa1_C SH2 domain (Homo sapiens, UniProt P20936); test: SPOT peptide array; format: binding; details: GST-SH2 0.25 μM, membrane-bound peptide, 1 mM DTT, LiCor read-out
T3 sequence (P20936 351-441 limits assumed): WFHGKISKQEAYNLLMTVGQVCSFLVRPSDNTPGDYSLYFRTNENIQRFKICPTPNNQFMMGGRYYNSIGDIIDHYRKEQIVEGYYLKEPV

Bmx SH2 domain = test: SPOT peptide array; format: binding; details: GST-SH2 0.25 μM, membrane-bound peptide, 1 mM DTT, LiCor read-out
Summary of the method: as §1

[7] = spot intensity as factor of array mean

Crk SH2 domain, sequence (P46108 13-118 limits assumed): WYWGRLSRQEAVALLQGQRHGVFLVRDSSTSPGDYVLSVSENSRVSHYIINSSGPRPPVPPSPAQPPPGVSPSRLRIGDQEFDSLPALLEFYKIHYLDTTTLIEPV

Row | Substance | Array positive (Lck SH2 domain [2]) | Kd (Src SH2 domain [3]) [nM] | Other SH2 domains bound (additional array-positive SH2 domains) (panel of 50 SH2 domains) | Array positive (Src SH2 domain [4]) | Array positive (Nck1 SH2 domain [5]) | also measured
1 | AEPQpYEEIPIY [11-mer phosphotyrosine control peptide, Middle T-antigen (Y323), reference compound] | Yes (Array-positive binding was ascribed to interactions with intensities greater than three times the array mean) | 550 to 800 | Blk, Brk, Fer, Fgr, Hck, Lyn, Nck1, Shc1, Yes | Yes (Array-positive binding was ascribed to interactions with intensities greater than three times the array mean) |  | Kd (Lck SH2 domain [1]): 1300 ± 200 nM
2 | EDDGpYDVPKPP [11-mer phosphotyrosine control peptide, Cbl (Y774), reference compound] |  |  | Crkl and Fgr, Src, Yes |  |  | Array positive (Hck SH2 domain): Yes (Array-positive binding was ascribed to interactions with intensities greater than three times the array mean); Array positive (Crk SH2 domain): Yes (Array-positive binding was ascribed to interactions with intensities greater than three times the array mean)
3 | GLDEpYDEVPMP [11-mer phosphotyrosine control peptide, B3AT (Y921), similar to the TIR10 peptide, reference compound] |  |  |  |  | Yes (Array-positive binding was ascribed to interactions with intensities greater than three times the array mean) | Kd (Nck1 SH2 domain [6]): 60 nM
4 | QDSLpYSDPLDS [11-mer phosphotyrosine peptide, p62DOK1 (Y315)] |  |  | Abl1, Blk, Crk, Lck, Lyn, Nck1, Src, Zap70_N |  |  | Array positive (Rasa1_C SH2 domain): Yes (Array-positive binding was ascribed to interactions with intensities greater than three times the array mean)
5 | WMEDpYDYVHLQ [11-mer phosphotyrosine peptide, p130Cas (Y664)] | No (Peptide spots with average intensity values between 1X-3X the array mean were defined as ‘indeterminate’. Those with intensities below 1X mean were defined as array negative) | 25 to 46 | Bcar3, Brk, Crk, Crkl, Dapp1, Fer, Grb7, Matk, PI3K1_N, Rasa1_N, Rasa1_C, Sh3bp2 and Itk | No (Peptide spots with average intensity values between 1X-3X the array mean were defined as ‘indeterminate’. Those with intensities below 1X mean were defined as array negative) | Yes (Array-positive binding was ascribed to interactions with intensities greater than three times the array mean) | Peptide array intensity (X mean) (Lck SH2 domain [2]; [7]): 2.03 X Mean; Array positive (Bmx SH2 domain): Yes (Array-positive binding was ascribed to interactions with intensities greater than three times the array mean); Peptide array intensity (X mean) (Src SH2 domain [4]; [7]): 2.45 X Mean
